Results on three molecules are retold here after patent publication USRE38117E1, “Trioxane dimer compound having antiproliferative and antitumor activities” (Hauser, Inc., priority 1995, dated 2003).

One data set deals with DU-145. As to the kind of experiment: NCI 60 cell line screen (SRB), Prostate Cancer. As to conditions: DU-145 (Prostate Cancer). The format is cell-based.
The nature of data set [1]: Stability at room temperature. Type of data set: physicochemical. The conditions noted are these: crystalline solid.
The test system of the next data set is 60 cell line panel. As to conditions: cell line panels consisting of 60 lines; cited from earlier work.
Data set [2] deals with Ehrlich ascites tumor (EAT) cells. As to conditions: MTT assay, Woerdenbag et al. 1993; cited from earlier work.
In the next data set the test system is P. berghei. The conditions noted are these: P. berghei-infected mice; Klayman 1985; cited from earlier work.
A further data set relates to P388 leukemia. The conditions noted are these: NCI Report on NSC 369397; cited from earlier work.
The test system of data set [3] is Plasmodium vivax and Plasmodium falciparum. As to conditions: 2099 cases of malaria, different dosage forms of QHS; 1979 study; cited from earlier work.
For another data set, the system named is P. falciparum. The conditions noted are these: two Hanian strains; Ye et al. 1983; cited from earlier work.
The conditions of data set [4]: cited from earlier work.

SMILES strings stand for the structures.

Take `COC1OC2(C)CCC3CCCC(CCOC(=O)c4cccc(C(=O)OCCC5CCCC6CCC7(C)OOC56C(OC)O7)c4)C31OO2` (centres unmarked) [Compound 10, Trioxane Bis-ester Dimer]: in the data set with DU-145, the Log10GI50 is reported as −4.53 M, the Log10LC50 was over −4.30 M and the Log10TGI is recorded as over −4.30 M. Besides, in data set [1], the stability result was “stable for prolonged periods at room temperature”.

In the data set on DU-145, `CC(=O)O[C@H]1C(=O)[C@@]2(C)[C@H]([C@H](OC(=O)c3ccccc3)[C@]3(O)C[C@H](OC(=O)[C@H](O)[C@@H](NC(=O)c4ccccc4)c4ccccc4)C(C)=C1C3(C)C)[C@]1(OC(C)=O)CO[C@@H]1C[C@@H]2O` [Paclitaxel, paclitaxel, reference compound] showed a Log10GI50 of −9.38 M, a Log10LC50 of over −4.00 M and a Log10TGI of over −4.00 M.

Take `C[C@@H]1CC[C@H]2[C@@H](C)C(=O)O[C@@H]3O[C@@]4(C)CC[C@@H]1[C@]32OO4` [QHS, 3,6,9-trimethyl-9,10b-epidioxyperhydropyrano[4,3,2-jk]benzoxepin-2-one, reference compound]: in the data set on 60 cell line panel, the anticancer activity entry is recorded as “very little anticancer activity”. The “ID50 / IC50 (drug concentration causing 50% growth inhibition of the tumor cells)” value in data set [2] was 29.8 µM. The “SD90 (parasitemia 90 percent suppressed)” value with P. berghei was 6.20 mg/kg. Moreover, the “activity against P388 leukemia” value in the data set on P388 leukemia was “inactive”. Further, in data set [3], the clinical outcome is listed as “clinical cure of all patients”. Moreover, the “potency in vitro compared with chloroquine” value in the data set on P. falciparum is on record as “comparable to that of chloroquine”. Moreover, in data set [4], the solubility in water entry is “insolubility in water”.
